Like-named read-outs stand apart in the source and are kept apart here.
Tests used:
IMP-1 = IMP-1 (Serratia marcescens, UniProt P52699); assay: biochemical; format: biochemical; conditions: fluorescence assay, CCF2-FA substrate, 2 pM enzyme, 2 hours at 25° C.; read-out: IMP-1 IC50
Method in brief: (§1)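 Class B activity is measured in the presence of compound by fluorescence with CCF2-FA after a 2-hour incubation at 25° C. IC50 is taken from a 4-parameter fit of semi-logarithmic dose-response data.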

NDM-1 = NDM-1 (Klebsiella pneumoniae, UniProt C7C422); assay: biochemical; format: biochemical; conditions: fluorescence assay, CCF2-FA substrate, 1 pM enzyme, 2 hours at 25° C.; read-out: NDM-1 IC50
Chain of NDM-1 (C7C422 whole entry, looked up, species assumed): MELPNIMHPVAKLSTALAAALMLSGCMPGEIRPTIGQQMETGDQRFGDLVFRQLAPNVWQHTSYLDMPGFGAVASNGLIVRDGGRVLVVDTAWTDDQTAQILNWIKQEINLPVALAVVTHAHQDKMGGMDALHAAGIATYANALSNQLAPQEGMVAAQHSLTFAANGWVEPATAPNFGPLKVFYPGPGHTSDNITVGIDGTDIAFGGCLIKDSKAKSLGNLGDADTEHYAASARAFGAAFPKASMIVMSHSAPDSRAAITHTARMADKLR
Method in brief: as §1

VIM-1 = VIM-1 (Pseudomonas aeruginosa (strain ATCC 15692 / DSM 22644 / CIP 104116 / JCM 14847 / LMG 12228 / 1C / PRS 101 / PAO1), UniProt A0A0F7KYQ8); assay: biochemical; conditions: CCF2-FA substrate, 30 pM enzyme, 2 hours at 25° C.
Method in brief: as §1

[1] = tested on: Escherichia coli expressing NDM-1 (CLB30005, CLB30016); format: cell-based; conditions: with imipenem 1 μg/ml; for Escherichia coli MITC95: NDM-1 strain
Method in brief: (§2)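 Colonies grown overnight on blood agar at 35° C were suspended in saline, diluted 1:100 into 1.1×CAMHB and dispensed. Imipenem was added to 1 μg/ml, then test compound. After 22 hours to 24 hours at 35° C, absorbance was recorded.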

[2] = tested on: Klebsiella pneumoniae expressing VIM-1 (IHMA599644); format: cell-based; conditions: for Klebsiella pneumoniae MITC95: VIM-1 strain IHMA599644, with imipenem 1 μg/ml; for Klebsiella pneumoniae expressing VIM-1 (IHMA599644) MITC95: with imipenem 1 μg/ml
Method in brief: as §2

[3] = tested on: Serratia marcescens expressing IMP-1 (CL5741); format: cell-based; conditions: for Serratia marcescens MITC95: IMP-1 strain CL5741, with imipenem 1 μg/ml; for Serratia marcescens expressing IMP-1 (CL5741) MITC95: with imipenem 1 μg/ml
Method in brief: as §2

[4] = tested on: Pseudomonas aeruginosa efflux+ (MB9798), IMP-1; format: cell-based; set-up: Concentration of metallo-β-lactamase inhibitor which restores susceptibility of efflux + (MB9798) strain to imipenem: unit not given here; conditions: C, D serine β-lactamase inhibitor closely related to relebactam; for P. aeruginosa expressing IMP-1, efflux + (MB9798) MITC95: concentration restoring susceptibility to imipenem at 2 μg/mL in the presence of a class A; for Concentration of metallo-β-lactamase inhibitor which restores susceptibility of efflux + (MB9798) strain to imipenem: imipenem at 2 μg/mL, in the presence of a class A
Method in brief: (§3)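 Steps: add fixed imipenem and/or ceftazidime (usually CLSI breakpoint) and fixed AmpC-directed class A/C inhibitor to microbroth MIC wells; titrate MBL inhibitor; record concentration regaining susceptibility for each PAO1-derived strain; divide efflux+ by efflux− value.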

[5] = tested on: Pseudomonas aeruginosa efflux− (MB9799), IMP-1; format: cell-based; conditions: C, D serine β-lactamase inhibitor closely related to relebactam; for P. aeruginosa expressing IMP-1, efflux − (MB9799) MITC95: concentration restoring susceptibility to imipenem at 2 μg/mL in the presence of a class A; for Concentration of metallo-β-lactamase inhibitor which restores susceptibility of efflux − (MB9799) strain to imipenem: imipenem at 2 μg/mL, in the presence of a class A
Method in brief: as §3

[6] = tested on: Pseudomonas aeruginosa MB9798 vs MB9799
Method in brief: as §3

[7] = fluorescence assay, read-out: VIM-1 IC50
[8] = ratio MITC95 PA_9798/MITC95 PA_9799
[9] = 95% inhibition of bacterial growth
[10] = fold difference between efflux+ (MB9798) and efflux− (MB9799) strains, imipenem at 2 μg/mL

Chain of IMP-1 (P52699 whole entry, looked up, species assumed): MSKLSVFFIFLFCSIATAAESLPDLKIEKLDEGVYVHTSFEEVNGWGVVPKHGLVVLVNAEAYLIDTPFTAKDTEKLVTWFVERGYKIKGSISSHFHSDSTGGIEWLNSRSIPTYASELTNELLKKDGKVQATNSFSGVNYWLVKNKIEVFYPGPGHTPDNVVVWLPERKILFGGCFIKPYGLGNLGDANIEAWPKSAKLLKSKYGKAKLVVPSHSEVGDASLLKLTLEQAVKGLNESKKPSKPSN

NCCNS(=O)(=O)c1ccc(-c2cccc3[nH]c(CN)nc23)c(-c2nn[nH]n2)c1S(N)(=O)=O [Example 343]
IC50 (IMP-1): 1.37 nM | IC50 (NDM-1): 0.195 nM | IC50 (VIM-1; [7]): 0.207 nM | Escherichia coli MITC95 ([1]; 95% inhibition of growth): 0.7813 µM | Klebsiella pneumoniae MITC95 ([2]; 95% inhibition of growth): 0.7813 µM | Serratia marcescens MITC95 ([3]; 95% inhibition of growth): 0.7813 µM | P. aeruginosa expressing IMP-1, efflux + (MB9798) MITC95 [4]: 0.7813 µM | P. aeruginosa expressing IMP-1, efflux − (MB9799) MITC95 [5]: 0.7813 µM | Efflux ratio [6, 8]: 1.00

CS(=O)(=O)Nc1ccc(-c2ccc(S(=O)(=O)N[C@@H]3CCNC3)c(S(N)(=O)=O)c2-c2nnn[nH]2)cc1 [Example 136, (R)-4′-(methylsulfonamido)-N4-(pyrrolidin-3-yl)-2-(1H-tetrazol-5-yl)-[1,1′-biphenyl]-3,4-disulfonamide]
IC50 (IMP-1): 0.0755 nM | IC50 (NDM-1): 0.0368 nM | IC50 (VIM-1; [7]): 0.105 nM | Escherichia coli expressing NDM-1 (CLB30016) MITC95 [1, 9]: 1.563 µM | Klebsiella pneumoniae expressing VIM-1 (IHMA599644) MITC95 [2, 9]: 1.563 µM | Serratia marcescens expressing IMP-1 (CL5741) MITC95 [3, 9]: 3.125 µM | P. aeruginosa expressing IMP-1, efflux + (MB9798) MITC95 [4]: 1.563 µM | P. aeruginosa expressing IMP-1, efflux − (MB9799) MITC95 [5]: 0.7813 µM | Efflux ratio [6, 8]: 2.00

NCCNS(=O)(=O)c1ccc(-c2ccc3sc(CN)nc3c2)c(-c2nn[nH]n2)c1S(N)(=O)=O [Example 476, N1-(2-aminoethyl)-4-(2-(aminomethyl)benzo[d]thiazol-5-yl)-3-(2H-tetrazol-5-yl)benzene-1,2-disulfonamide]
IC50 (IMP-1): 0.281 nM | IC50 (NDM-1): 0.27 nM | IC50 (VIM-1; [7]): 0.121 nM | Escherichia coli MITC95 ([1]; 95% inhibition of growth): 1.563 µM | Klebsiella pneumoniae MITC95 ([2]; 95% inhibition of growth): 1.563 µM | Serratia marcescens MITC95 ([3]; 95% inhibition of growth): 0.7813 µM | Concentration of metallo-β-lactamase inhibitor which restores susceptibility of efflux + (MB9798) strain to imipenem [4]: 0.7813 | Concentration of metallo-β-lactamase inhibitor which restores susceptibility of efflux − (MB9799) strain to imipenem [5]: 0.7813 | Efflux ratio [6, 10]: 1.00

NC[C@H](CO)NS(=O)(=O)c1ccc(-c2cccc3nc(N)[nH]c23)c(-c2nn[nH]n2)c1S(N)(=O)=O [Example 427]
IC50 (IMP-1): 2.61 nM | IC50 (NDM-1): 0.221 nM | IC50 (VIM-1; [7]): 0.547 nM | Escherichia coli MITC95 ([1]; 95% inhibition of growth): 0.3906 µM | Klebsiella pneumoniae MITC95 ([2]; 95% inhibition of growth): 1.563 µM | Serratia marcescens MITC95 ([3]; 95% inhibition of growth): 0.7813 µM | Concentration of metallo-β-lactamase inhibitor which restores susceptibility of efflux + (MB9798) strain to imipenem [4]: 0.7813 | Concentration of metallo-β-lactamase inhibitor which restores susceptibility of efflux − (MB9799) strain to imipenem [5]: 0.7813 | Efflux ratio [6, 10]: 1.00

Nc1nc2c(-c3ccc(S(=O)(=O)NC[C@@H]4CNCCN4)c(S(N)(=O)=O)c3-c3nn[nH]n3)cccc2[nH]1 [Example 310, (S)-4-(2-amino-1H-benzo[d]imidazol-4-yl)-N1-(piperazin-2-ylmethyl)-3-(2H-tetrazol-5-yl)benzene-1,2-disulfonamide]
IC50 (IMP-1): 0.667 nM | IC50 (NDM-1): 0.0521 nM | IC50 (VIM-1; [7]): 0.169 nM | Escherichia coli MITC95 ([1]; 95% inhibition of growth): 0.7813 µM | Klebsiella pneumoniae MITC95 ([2]; 95% inhibition of growth): 1.563 µM | Serratia marcescens MITC95 ([3]; 95% inhibition of growth): 0.7813 µM | P. aeruginosa expressing IMP-1, efflux + (MB9798) MITC95 [4]: 0.7813 µM | P. aeruginosa expressing IMP-1, efflux − (MB9799) MITC95 [5]: 0.7813 µM | Efflux ratio [6, 8]: 1.00

NCc1nc(-c2cccc(-c3ccc(S(=O)(=O)N[C@H]4CNC[C@H]4N)c(S(N)(=O)=O)c3-c3nn[nH]n3)c2)c[nH]1 [Example 462]
IC50 (IMP-1): 1.29 nM | IC50 (NDM-1): 0.0954 nM | IC50 (VIM-1; VIM-1 IC50, fluorescence assay): 0.227 nM | Escherichia coli MITC95 ([1]; 95% inhibition of growth): 1.563 µM | Klebsiella pneumoniae MITC95 ([2]; 95% inhibition of growth): 1.563 µM | Serratia marcescens MITC95 ([3]; 95% inhibition of growth): 1.563 µM | Concentration of metallo-β-lactamase inhibitor which restores susceptibility of efflux + (MB9798) strain to imipenem [4]: 1.563 | Concentration of metallo-β-lactamase inhibitor which restores susceptibility of efflux − (MB9799) strain to imipenem [5]: 0.7813 | Efflux ratio [6, 10]: 2.00

CNc1ccc(-c2ccc(S(=O)(=O)NCCN)c(S(N)(=O)=O)c2-c2nn[nH]n2)cn1 [Example 243]
IC50 (IMP-1): 0.312 nM | IC50 (NDM-1): 0.276 nM | IC50 (VIM-1; [7]): 0.194 nM | Escherichia coli MITC95 ([1]; 95% inhibition of growth): 0.3906 µM | Klebsiella pneumoniae MITC95 ([2]; 95% inhibition of growth): 1.563 µM | Serratia marcescens MITC95 ([3]; 95% inhibition of growth): 0.3906 µM | P. aeruginosa expressing IMP-1, efflux + (MB9798) MITC95 [4]: 0.7813 µM | P. aeruginosa expressing IMP-1, efflux − (MB9799) MITC95 [5]: 0.7813 µM | Efflux ratio [6, 8]: 1.00

Nc1nc2c(-c3ccc(S(=O)(=O)NC[C@@H](N)C(=O)O)c(S(N)(=O)=O)c3-c3nn[nH]n3)cccc2s1 [Example 154, (R)-2-amino-3-((4-(2-aminobenzo[d]thiazol-4-yl)-2-sulfamoyl-3-(2H-tetrazol-5-yl)phenyl)sulfonamido)propanoic acid]
IC50 (IMP-1): 0.155 nM | IC50 (NDM-1): 0.067 nM | IC50 (VIM-1; [7]): 0.28 nM | Escherichia coli expressing NDM-1 (CLB30016) MITC95 [1, 9]: 50 µM | Klebsiella pneumoniae expressing VIM-1 (IHMA599644) MITC95 [2, 9]: 25 µM | Serratia marcescens expressing IMP-1 (CL5741) MITC95 [3, 9]: 6.25 µM | P. aeruginosa expressing IMP-1, efflux + (MB9798) MITC95 [4]: 3.125 µM | P. aeruginosa expressing IMP-1, efflux − (MB9799) MITC95 [5]: 6.25 µM | Efflux ratio [6, 8]: 0.50

NCCNS(=O)(=O)c1ccc(-c2cccc3oc(C(=O)O)nc23)c(-c2nn[nH]n2)c1S(N)(=O)=O [Example 13, 4-(4-(N-(2-aminoethyl)sulfamoyl)-3-sulfamoyl-2-(2H-tetrazol-5-yl)phenyl)benzo[d]oxazole-2-carboxylic acid]
IC50 (IMP-1): 2.14 nM | IC50 (NDM-1): 0.0757 nM | IC50 (VIM-1; [7]): 0.412 nM | Escherichia coli expressing NDM-1 (CLB30016) MITC95 [1, 9]: 12.5 µM | Klebsiella pneumoniae expressing VIM-1 (IHMA599644) MITC95 [2, 9]: 25 µM | Serratia marcescens expressing IMP-1 (CL5741) MITC95 [3, 9]: 12.5 µM | P. aeruginosa expressing IMP-1, efflux + (MB9798) MITC95 [4]: 12.5 µM | P. aeruginosa expressing IMP-1, efflux − (MB9799) MITC95 [5]: 6.25 µM | Efflux ratio [6, 8]: 2.00

CC1(NS(=O)(=O)c2ccc(-c3ccc(N)nc3)c(-c3nn[nH]n3)c2S(N)(=O)=O)CNC1.Cl.Cl [Example 497, 4-(6-aminopyridin-3-yl)-1-N-(3-methylazetidin-3-yl)-3-(2H-1,2,3,4-tetrazol-5-yl)benzene-1,2-disulfonamide hydrogen]
IC50 (IMP-1): 0.645 nM | IC50 (NDM-1): 0.131 nM | IC50 (VIM-1; [7]): 0.219 nM | Escherichia coli MITC95 [1, 9]: 0.3906 µM | Klebsiella pneumoniae MITC95 [2, 9]: 1.563 µM | Serratia marcescens MITC95 [3, 9]: 0.7813 µM | Concentration of metallo-β-lactamase inhibitor which restores susceptibility of efflux + (MB9798) strain to imipenem [4]: 0.7813 | Concentration of metallo-β-lactamase inhibitor which restores susceptibility of efflux − (MB9799) strain to imipenem [5]: 0.7813 | Efflux ratio [6, 10]: 1.00

— patent publication US10221163B2 (priority 2015, dated 2019)
